ΔTm data for one molecule are collected here from ChEMBL document CHEMBL5375976, “Discovery of Inhibitory Fragments That Selectively Target Spire2-FMN2 Interaction” (J Med Chem, 2023).

The term ΔTm denotes the shift of the melting midpoint relative to a reference.

This assay has as its target T1, Fermitin family homolog 2 (Homo sapiens) (UniProt Q96AC1).
T1 sequence (whole entry): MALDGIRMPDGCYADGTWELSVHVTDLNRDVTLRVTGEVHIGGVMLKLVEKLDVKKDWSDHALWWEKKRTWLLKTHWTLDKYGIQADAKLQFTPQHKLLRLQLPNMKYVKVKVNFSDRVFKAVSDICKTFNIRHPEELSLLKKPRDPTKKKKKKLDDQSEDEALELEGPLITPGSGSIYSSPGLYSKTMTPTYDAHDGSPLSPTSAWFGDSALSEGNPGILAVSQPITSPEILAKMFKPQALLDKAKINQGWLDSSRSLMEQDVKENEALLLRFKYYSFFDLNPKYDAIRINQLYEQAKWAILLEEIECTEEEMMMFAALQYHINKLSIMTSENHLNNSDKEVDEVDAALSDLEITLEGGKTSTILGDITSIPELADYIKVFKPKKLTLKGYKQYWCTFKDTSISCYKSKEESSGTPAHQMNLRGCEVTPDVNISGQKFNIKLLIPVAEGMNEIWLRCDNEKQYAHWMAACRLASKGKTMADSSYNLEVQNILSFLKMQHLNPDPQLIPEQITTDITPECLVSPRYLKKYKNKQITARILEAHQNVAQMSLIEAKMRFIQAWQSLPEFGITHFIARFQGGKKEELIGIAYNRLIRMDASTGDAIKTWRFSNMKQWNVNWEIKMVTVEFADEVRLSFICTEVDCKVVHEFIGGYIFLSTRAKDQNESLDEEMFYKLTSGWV
Description: Binding affinity to His6-tagged KIND2 (unknown origin) expressed in Escherichia coli BL21(DE3) assessed as change in melting temperature by DSF analysis

On to `NCCNc1ccnc2cc(OCc3ccccc3)ccc12`, for which the ΔTm was 0 °C.
